The record followed here is BindingDB's records for doi:10.1016/j.bmcl.2020.126965 (Australian National University, 2020).

The target in this assay is Nonstructural protein 3 (Zika virus, UniProt A0A024AXB9). Nature of the assay: Binding affinity to Zika virus NS2B-NS3 protease.

The structures appear in SMILES notation.

Nonstructural protein 3, sequence (A0A024AXB9 whole entry): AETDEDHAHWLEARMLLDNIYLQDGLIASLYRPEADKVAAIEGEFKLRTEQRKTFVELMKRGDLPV

Turning to `CC1=CCC(C(=O)/N=C2\CC=C(S(=O)(=O)O)c3cc(S(=O)(=O)O)cc(S(=O)(=O)O)c32)=C/C1=N/C(=O)C1=CC=C/C(=N\C(=O)/N=C2\C=CC=C(C(=O)/N=C3/CC(C(=O)/N=C4\CC=C(S(=O)(=O)O)c5cc(S(=O)(=O)O)cc(S(=O)(=O)O)c54)=CC=C3C)C2)C1`, the half-maximal effective concentration (EC50) stood at 1930 nM.

For orientation: EC50 means the concentration giving half of the maximal effect. Low readings indicate greater potency, high ones weaker potency.
